# Biological target: T1, human FXR (Homo sapiens, UniProt Q96RI1)
# T1 construct: expressed in transfected cells; host or cells: HEK293 cells stably carrying a 5xGal4-response-element firefly luciferase reporter, transiently transfected with pcDNA3.1-Gal4-FXR
# T1 sequence (Q96RI1 262-486 limits assumed): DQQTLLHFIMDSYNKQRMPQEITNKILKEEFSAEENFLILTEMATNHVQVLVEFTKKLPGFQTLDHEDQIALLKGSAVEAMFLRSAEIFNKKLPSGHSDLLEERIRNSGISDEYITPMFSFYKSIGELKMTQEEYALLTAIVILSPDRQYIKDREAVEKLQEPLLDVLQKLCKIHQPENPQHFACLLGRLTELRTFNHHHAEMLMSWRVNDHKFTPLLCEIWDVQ
# Assay: transient human FXR/Gal4-luciferase reporter assay
# Assay type: cell-based
# Details: Gal4-hFXR transfected HEK293 reporter cells; relative to 8 μM GW-4064
# Method: A Gal4-hFXR fusion construct reporter system was used as the primary assay to characterize compound activity. A construct including 5 copies of the Gal4 promoter response element upstream of a firefly luciferase reporter cDNA was stably expressed in HEK293 cells. This reporter cell line was maintained in Dulbecco's Modified Eagle's medium (DMEM; Gibco) supplemented with 1% penicillin-streptomycin (P/S) solution, 500 μg/mL Zeocin and 10% charcoal/dextran-treated fetal bovine serum (cs-FBS) at 37° C. in a humidified 5% CO2 atmosphere. Another plasmid was constructed in which the human cytomegalovirus promoter in the pcDNA3.1 vector directs the expression of the cDNA encoding a fusion protein comprised of the DNA binding domain from the Gal4 transcription factor fused to the ligand binding domain from human FXR.
# The day prior to transfection, the reporter cells in culture are detached from the plate with trypsin and plated into a T75 flask at a sufficient density to achieve approximately 90% confluence the next morning. The transfection reagents are prepared by separately diluting 25 μg of the pcDNA3.1-Gal4-FXR plasmid into 1.87 mL of Opti-MEM (Thermo-Fisher), and 40 μL of Lipofectamine 2000 (Thermo-Fisher) into 1.87 mL of Opti-MEM, and then adding the diluted DNA solution into the diluted Lipofectamine 2000 solution and incubating at room temperature for 15-20 minutes. The mixture is further diluted with 10 mL of a solution comprised of DMEM, 10% cs-FBS, and 1% P/S immediately prior to transferring to the cells. The maintenance culture media is aspirated from the cells and the final transfection mixture is added before the cells are incubated overnight at 37° C. in a humidified 5% CO2 atmosphere. This protocol can be scaled up, and the transiently transfected cells can be cryopreserved in an assay-ready format.
# For compound testing, 100 nL of the compounds (serial dilutions in DMSO) are dispensed with an Echo acoustic dispenser (Labcyte) into the wells of a Corning/Costar clear bottom 384-well white plate. The transfected cells are harvested, counted, and diluted such that 10-25,000 cells in 25 μL are plated into each well of the 384-well compound assay plate. The compound-treated cells are incubated overnight at 37° C. in a humidified 5% CO2 atmosphere.
row,Compound,EC50 [nM]
1,"O=C(O)c1cc(C(F)(F)F)c2cc(N3CCC4(C=C(c5c(C(F)F)cnn5-c5ccccc5C(F)(F)F)C4)CC3)ccc2n1 [Example 214, 6-(2-(4-(Difluoromethyl)-1-(2-(trifluoromethyl)phenyl)-1H-pyrazol-5-yl)-7-azaspiro[3.5]non-1-en-7-yl)-4-(trifluoromethyl)quinoline-2-carboxylic acid]",26
2,"O=C(NS(=O)(=O)C1CC1)c1cc(OC(F)F)c2cc(N3CCC4(C=C(c5c(-c6cnccc6C(F)(F)F)noc5C5CC5)C4)CC3)ccc2n1 [Example 188, 6-(2-(5-Cyclopropyl-3-(4-(trifluoromethyl)pyridin-3-yl)isoxazol-4-yl)-7-azaspiro[3.5]non-1-en-7-yl)-N-(cyclopropylsulfonyl)-4-(difluoromethoxy)quinoline-2-carboxamide]",43
3,"O=C(O)c1cc(F)c2nc(N3CCC4(C=C(c5c(-c6ncccc6Cl)noc5C5CC5)C4)CC3)sc2c1 [Example 46, 2-(2-(3-(3-Chloropyridin-2-yl)-5-cyclopropylisoxazol-4-yl)-7-azaspiro[3.5]non-1-en-7-yl)-4-fluorobenzo[d]thiazole-6-carboxylic acid]",200
4,"O=C(O)c1cc(F)c2nc(N3CCC4(C=C(c5c(-c6c(F)cccc6Cl)noc5C5CC5)C4)CC3)sc2c1 [Example 136, 2-(2-(3-(2-Chloro-6-fluorophenyl)-5-cyclopropylisoxazol-4-yl)-7-azaspiro[3.5]non-1-en-7-yl)-4-fluorobenzo[d]thiazole-6-carboxylic acid]",37
5,"Cn1c(C(=O)O)cc2cc(N3CCC4(C=C(c5c(-c6ccccc6OC(F)(F)F)noc5C5CC5)C4)CC3)ncc21 [Example 172, 5-(2-(5-Cyclopropyl-3-(2-(trifluoromethoxy)phenyl)isoxazol-4-yl)-7-azaspiro[3.5]non-1-en-7-yl)-1-methyl-1H-pyrrolo[2,3-c]pyridine-2-carboxylic acid]",2370
6,"CCOc1cc(C(=O)O)nc2ccc(N3CCC4(C=C(c5c(-c6ccccc6C(F)(F)F)noc5C5CC5)C4)CC3)cc12 [Example 72, 6-(2-(5-Cyclopropyl-3-(2-(trifluoromethyl)phenyl)isoxazol-4-yl)-7-azaspiro[3.5]non-1-en-7-yl)-4-ethoxyquinoline-2-carboxylic acid]",10
7,"Cn1nc(N2CCC3(C=C(c4c(-c5ccccc5C(F)(F)F)noc4C4CC4)C3)CC2)c2ccc(C(=O)O)cc21 [Example 134, 3-(2-(5-Cyclopropyl-3-(2-(trifluoromethyl)phenyl)isoxazol-4-yl)-7-azaspiro[3.5]non-1-en-7-yl)-1-methyl-1H-indazole-6-carboxylic acid]",3310
8,"Cc1cc(C(=O)O)cc2sc(N3CCC4(C=C(c5c(-c6c(Cl)cccc6Cl)noc5C5CC5)C4)CC3)nc12 [Example 45, 2-(2-(5-Cyclopropyl-3-(2,6-dichlorophenyl)isoxazol-4-yl)-7-azaspiro[3.5]non-1-en-7-yl)-4-methylbenzo[d]thiazole-6-carboxylic acid]",11
9,"O=C(O)c1ccn2nc(N3CCC4(C=C(c5c(-c6ccccc6C(F)(F)F)noc5C5CC5)C4)CC3)ncc12 [Example 135, 2-(2-(5-Cyclopropyl-3-(2-(trifluoromethyl)phenyl)isoxazol-4-yl)-7-azaspiro[3.5]non-1-en-7-yl)pyrrolo[2,1-f][1,2,4]triazine-5-carboxylic acid]",87
10,"O=C(O)c1ccc2nc(N3CCC4(C=C(c5c(-c6c(Cl)cncc6Cl)noc5C5CC5)C4)CC3)sc2n1 [Example 62, 2-(2-(5-Cyclopropyl-3-(3,5-dichloropyridin-4-yl)isoxazol-4-yl)-7-azaspiro[3.5]non-1-en-7-yl)thiazolo[5,4-b]pyridine-5-carboxylic acid]",24
11,"O=C(O)c1cc(F)c2nc(N3CCC4(C=C(c5c(-c6cnccc6C(F)(F)F)noc5C5CC5)C4)CC3)sc2c1 [Example 139, 2-(2-(5-Cyclopropyl-3-(4-(trifluoromethyl)pyridin-3-yl)isoxazol-4-yl)-7-azaspiro[3.5]non-1-en-7-yl)-4-fluorobenzo[d]thiazole-6-carboxylic acid]",482
12,"O=C(O)c1cc(OC(F)F)c2cc(N3CCC4(C=C(c5c(-c6cccnc6C(F)(F)F)noc5C5CC5)C4)CC3)ccc2n1 [Example 77, 6-(2-(5-Cyclopropyl-3-(2-(trifluoromethyl)pyridin-3-yl)isoxazol-4-yl)-7-azaspiro[3.5]non-1-en-7-yl)-4-(difluoromethoxy)quinoline-2-carboxylic acid]",68
13,"O=C(O)c1cnc(N2CCC3(C=C(c4c(-c5c(Cl)cccc5Cl)noc4C4CC4)C3)CC2)nc1 [Example 118, 2-(2-(5-Cyclopropyl-3-(2,6-dichlorophenyl)isoxazol-4-yl)-7-azaspiro[3.5]non-1-en-7-yl)pyrimidine-5-carboxylic acid]",171
14,"O=C(O)c1cc2ccc(N3CCC4(C=C(c5c(-c6c(Cl)cccc6Cl)noc5C5CC5)C4)CC3)cc2nn1 [Example 53, 7-(2-(5-Cyclopropyl-3-(2,6-dichlorophenyl)isoxazol-4-yl)-7-azaspiro[3.5]non-1-en-7-yl)cinnoline-3-carboxylic acid]",46
15,"O=C(O)c1cccc2nc(N3CCC4(C=C(c5c(-c6c(Cl)cncc6Cl)noc5C5CC5)C4)CC3)ccc12 [Example 65, 2-(2-(5-Cyclopropyl-3-(3,5-dichloropyridin-4-yl)isoxazol-4-yl)-7-azaspiro[3.5]non-1-en-7-yl)quinoline-5-carboxylic acid]",65
16,"Cc1cc(C(=O)O)nc(N2CCC3(C=C(c4c(-c5c(Cl)cccc5Cl)noc4C4CC4)C3)CC2)n1 [Example 120, 2-(2-(5-Cyclopropyl-3-(2,6-dichlorophenyl)isoxazol-4-yl)-7-azaspiro[3.5]non-1-en-7-yl)-6-methylpyrimidine-4-carboxylic acid]",1390
17,"CC(C)c1onc(-c2c(Cl)cncc2Cl)c1C1=CC2(CCN(c3ccc4nc(C(=O)O)cc(C(F)(F)F)c4c3)CC2)C1 [Example 95, 6-(2-(3-(3,5-Dichloropyridin-4-yl)-5-isopropylisoxazol-4-yl)-7-azaspiro[3.5]non-1-en-7-yl)-4-(trifluoromethyl)quinoline-2-carboxylic acid]",37
18,"O=C(O)c1cnc(N2CCC3(C=C(c4c(-c5c(Cl)cccc5Cl)noc4C4CC4)C3)CC2)c(F)c1 [Example 28, 6-(2-(5-Cyclopropyl-3-(2,6-dichlorophenyl)isoxazol-4-yl)-7-azaspiro[3.5]non-1-en-7-yl)-5-fluoronicotinic acid]",453
19,"O=C(O)CNC(=O)c1cc(F)c2nc(N3CCC4(C=C(c5c(-c6ccccc6C(F)(F)F)noc5C5CC5)C4)CC3)sc2c1 [Example 32, (2-(2-(5-Cyclopropyl-3-(2-(trifluoromethyl)phenyl)isoxazol-4-yl)-7-azaspiro[3.5]non-1-en-7-yl)-4-fluorobenzo[d]thiazole-6-carbonyl)glycine]",1500
20,"O=C(NS(=O)(=O)C1CC1)c1cc(OC(F)F)c2cc(N3CCC4(C=C(c5c(-c6cccnc6C(F)(F)F)noc5C5CC5)C4)CC3)ccc2n1 [Example 191, 6-(2-(5-Cyclopropyl-3-(2-(trifluoromethyl)pyridin-3-yl)isoxazol-4-yl)-7-azaspiro[3.5]non-1-en-7-yl)-N-(cyclopropylsulfonyl)-4-(difluoromethoxy)quinoline-2-carboxamide]",140
21,"O=C(O)c1ccc(N2C3CCC2CC2(CC(c4c(-c5c(Cl)cccc5Cl)noc4C4CC4)C2)C3)nc1 (centres unmarked) [Example 16, 6-(3′-(5-Cyclopropyl-3-(2,6-dichlorophenyl)isoxazol-4-yl)-8-azaspiro[bicyclo[3.2.1]octane-3,1′-cyclobutan]-8-yl)nicotinic acid]",646
22,"O=C(O)c1cc(F)c2nc(N3CCC4(C=C(c5c(-c6c(F)cccc6F)noc5C5CC5)C4)CC3)sc2c1 [Example 137, 2-(2-(5-Cyclopropyl-3-(2,6-difluorophenyl)isoxazol-4-yl)-7-azaspiro[3.5]non-1-en-7-yl)-4-fluorobenzo[d]thiazole-6-carboxylic acid]",155
23,"CCOc1cc(C(=O)O)nc2ccc(N3CCC4(C=C(c5c(-c6c(Cl)cncc6Cl)noc5C5CC5)C4)CC3)cc12 [Example 107, 6-(2-(5-Cyclopropyl-3-(3,5-dichloropyridin-4-yl)isoxazol-4-yl)-7-azaspiro[3.5]non-1-en-7-yl)-4-ethoxyquinoline-2-carboxylic acid]",31

# From patent US11078198B2 (BRISTOL-MYERS SQUIBB COMPANY, priority 2017, dated 2021)
